Experiment: Test method of measuring skin temperature when smelling the aroma of the test sample
Assay type: in vivo, human
Details: females in their 20's, aroma smelled from soaked cotton, chest skin temperature as reference, 25 °C, humidity 45%; for effect of the aroma on the skin temperature of the cheek (change level with aroma minus change level with no aroma): samples 0.05-0.1 mass % in triethyl citrate or ethanol, FIG. 1
Procedure: The present invention will be explained below in more detail with reference to examples. Test samples were prepared which were a dilution of an extract of Japanese peppermint by triethyl citrate to a concentration of 0.05 mass %, a dilution of an extract of juniper berry by triethyl citrate to a concentration of 0.1 mass %, a dilution of an extract of […] by triethyl citrate to a concentration of 0.05 mass %, a dilution of dihydro-β-ionol by ethanol to a concentration of 0.1 mass %, a dilution of geraniol by ethanol to a concentration of 0.1 mass %, and a dilution of 4-methoxystyrene by ethanol to a concentration of 0.5 mass %, and how the aromas of those test samples influenced a skin temperature was tested. In this example, test subjects were females in their 20's. Five test subjects for the extract of Japanese peppermint, seven test subjects for the extract of juniper berry, three test subjects for the extract of […] test subjects for dihydro-β-ionol, five test subjects for geraniol, and seven test subjects for 4-methoxystyrene participated in the tests. The test content was explained in advance to the test subjects, and the participation in the test was agreed in writing. The tests were carried out in a room at a constant temperature set to 25 ° C. and a constant humidity set to 45%. Skin temperature sensors were attached to a cheek of the test subject, a hand fingertip (middle finger), and a chest, and connected to a temperature monitor to successively measure the skin temperature. […] Skin temperature change levels of a cheek and those of a hand fingertip between when an aroma was smelled and when no aroma was smelled were compared with each other, and an effect of the aroma of the test sample to the skin temperature was evaluated. […] When this value is a positive one, it is determined that a skin temperature is raised and when this value is a negative one, it is determined that a skin temperature is lowered.

Compound: C=Cc1ccc(OC)cc1 [4-methoxystyrene]
- effect of the aroma on the skin temperature of the hand fingertip (change level with aroma minus change level with no aroma) (middle finger, samples 0.05-0.5 mass % in triethyl citrate or ethanol, FIG. 2): effect of raising the skin temperature of the hand fingertip

Compound: CC1=C(CCC(C)O)C(C)(C)CCC1 (stereo not drawn) [dihydro-β-ionol, Dihydro-β-ionol]
- effect of the aroma on the skin temperature of the cheek (change level with aroma minus change level with no aroma): effect of raising the skin temperature of the cheek

Compound: CC(C)=CCC/C(C)=C/CO [geraniol, Geraniol]
- effect of the aroma on the skin temperature of the cheek (change level with aroma minus change level with no aroma): effect of raising the skin temperature of the cheek

Source: patent publication US20130149399A1, “SKIN TEMPERATURE ELEVATING AGENT, AND COSMETIC COMPOSITION, FOOD AND SUNDRY ARTICLE CONTAINING THE SAME” (SHISEIDO COMPANY ,LTD., priority 2010, published 2013)
